This note sets out measurements from patent US6013672A, “Agonists of metabotropic glutamate receptors and uses thereof” (UAB Research Foundation, priority 1997, dated 2000).

The subject of assay [1] is hippocampal astrocytes. The experiment in a line: 3H-D-aspartate (glutamate/aspartate) uptake in astrocytes. The following applies: for activation at 500 µM: Rattus norvegicus, Astrocyte, 0.5 mM, 24 hour exposure, average of 25 experiments, read-out: glutamate/aspartate uptake enhanced by. It counts as cell-based, rat. Here is the method: Uptake procedures were essentially identical to those previously described (Kimelberg et al. 1989; Ye et al., 1996). Briefly, 5-10 minutes before assessing uptake, astrocytes were washed and kept in a solution containing (in mM): NaCl 122, KCl 3, MgSO4 0.4, KH2 PO4 1.2, NaHCO3 25, D-glucose 10, and CaCl2 1.3, at 37° C., bubbled with 5%/95% CO2 /O2. Then the cells were switched to the above solution supplemented with 0.1 mM D-aspartate and 0.4 μCi/ml ^3 H-D-aspartate. Glutamate/aspartate uptake was determined over a 10 or 30 minutes period and was terminated by three quick washes, twice with ice cold 0.29 M sucrose solution with 10 mM Tris Nitrate, 0.5 mM Ca(NO3)2, (pH 7.40 by NaOH) and then with ice cold PBS. Cells were then harvested after a 30 minute incubation in 0.3 N NaOH solution (37° C.) and ^3 H activity was determined in a liquid scintillation counter (Beckman). Total uptake was normalized to protein content to eliminate variability due to cell number. Protein levels were determined using the bicinchoninic acid (BCA) assay (Pierce; Rockford, Ill.).

The test system of assay [2] is hippocampal astrocytes. The experiment in a line: Intracellular glutamate content [Glu]i of astrocytes. The assay is classed as cell-based, rat. The following applies: Rattus norvegicus, Astrocyte, 24 h; highest dose used (1 mM), chronic treatment. Here is the method:
For experiments in which [Glu]o concentrations were assessed by the bioluminescence method, cells were maintained in glutamate-depleted medium in the presence or absence of the agonists/antagonist combination of interest. […] After the incubation period, the stimulation media (containing drugs of interest) were aspirated and cells were washed twice with MEM and allowed to remain for 30 to 60 minutes in drug free MEM supplemented with 20 mM glucose prior to taking media samples for glutamate measurements. To assess acute drug effects, untreated cells were washed and the reagent of interest applied in glucose supplemented MEM. Cells were harvested in 0.3 N NaOH and neutralized with 0.3 N HCl. Aliquots were stored in -20° C. for protein and [Glu]i determination. Glutamate standards used for calibration were prepared in MEM (For [Glu]i in 0.15 N NaCl).

The test system of assay [3] is hippocampal astrocytes. The experiment in a line: Extracellular glutamate [Glu]o released by astrocyte cultures (bioluminescence). The assay is classed as cell-based, rat. The following applies: for activity at 100 µM: read-out: % of control [Glu]0.
Assay [4] has as its system rat hippocampal brain slices. The experiment in a line: THA-induced glutamate release in acute hippocampal brain sections. The assay is classed as cell-based. The following applies: 400 min pretreatment. The text has this:
This was accomplished using THA, a heteroexchange drug that is also a substrate for the glutamate transporter. For each molecule of THA transported into the cell, one molecule of glutamate is released. Therefore, THA allows the induction of glutamate release.

The subject of a further assay is glial cells. The experiment in a line: Glial glutamate uptake and extracellular glutamate with MPTP/MPP+ and t-ACPD. The assay is classed as cell-based. Here is the method: The normally low glutamate levels in the brain are established and maintained in glial cells by non-vesicular uptake of glutamate through a Na^+ -dependent transporter (FIG. 14). Once taken up, glutamate can be converted to glutamine and recycled for neurotransmitter synthesis in neurons (FIG. 14). If glial cells in culture are exposed to high glutamate concentrations (e.g., 100 μM), they will remove it from the extracellular space and essentially "detoxify" the neuronal environment. […] Under those conditions, extracellular glutamate levels are elevated to 7 μM (FIG. 16), which is toxic to most surrounding neurons.
Impaired glial glutamate transport may contribute to the loss of dopaminergic neurons in Parkinson's disease. Thus, stimulation of this pathway would be neuroprotective. A drug and its receptor on glial cells was identified that allows enhanced glutamate detoxification. Specifically, trans-ACPD (trans-1-amino-1,3-cyclopentane dicarboxylic acid) (t-ACPD), a group II metabotropic glutamate receptor agonist, enhanced glial glutamate uptake (FIG. 17). It's actions were 2-fold; (i) it enhanced glutamate uptake by up to 80%, and (ii) it decreased non-specific release of glutamate, effectively trapping glutamate inside glial cells. In fact, the release of glutamate decreased to such a large extent that it almost made the transporter rectify, e.g. allowing only influx and preventing outflow of glutamate (FIG. 18). […] Using antibodies and further pharmacological studies, the receptor that is responsible for these effects has been identified as mGluR2/3.
In Parkinson's disease, it is believed that neurons may die of excitotoxic exposure to glutamate. The present invention determined that MPTP directly effects glutamate uptake into astrocytes (FIG. 21, top left). […] This increased release may be sufficient to explain some of the subsequent neurodegeneration.

In assay [5] the test system is hippocampal astrocytes. The experiment in a line: Removal of an exogenous glutamate challenge by astrocyte cultures, [Glu]o over time. The following applies: 500 μM for 24 hour before 50 μM glutamate challenge. It counts as cell-based, rat. Here is the method: The bioluminescence method for detection was used for glutamate in solution as described by Fosse et al. (1986) with only minor modifications. The glutamate-specific reagent mixture contained potassium phosphate (pH 7.0) 25 mM, Triton X-100 40 μg/ml, dithiothreitol 100 μM, Myristyl aldehyde 40 μM (Aldrich; Milwaukee, Wis.), β-NAD 2 mM, ADP 250 μM, FMN 2.5 μM, luciferase 40 μg/ml, NAD(P)H:FMN oxidoreductase 400 mU/ml, glutamate dehydrogenase 0.5 mg/ml. All experiments were performed with a Monolight 2010 luminomitor (Analytical Luminescence Lab; Ann Arbor, Mich.).
For experiments in which [Glu]o concentrations were assessed by the bioluminescence method, cells were maintained in glutamate-depleted medium in the presence or absence of the agonists/antagonist combination of interest. To assess chronic effects, glutamate analogues were applied for 24 hours unless indicated otherwise. After the incubation period, the stimulation media (containing drugs of interest) were aspirated and cells were washed twice with MEM and allowed to remain for 30 to 60 minutes in drug free MEM supplemented with 20 mM glucose prior to taking media samples for glutamate measurements. To assess acute drug effects, untreated cells were washed and the reagent of interest applied in glucose supplemented MEM. Cells were harvested in 0.3 N NaOH and neutralized with 0.3 N HCl. Aliquots were stored in -20° C. for protein and [Glu]i determination. Glutamate standards used for calibration were prepared in MEM (For [Glu]i in 0.15 N NaCl).
To delineate the role of mGluR receptors on [Glu]o levels, hippocampal astrocytes were challenged with 50 μM glutamate and cells that were pretreated with trans-ACPD were compared to control cultures (FIG. 2A). Control astrocytes rapidly remove glutamate from the medium, and after ≈3 hours, [Glu]o stabilized at values to 1 μM. […] Mean values were 0.96±0.1 μM in control astrocytes, as compared to 0.18±0.03 μM in trans-ACPD treated astrocytes.
Glutamate undoubtedly is the endogenous ligand for mGluRs. However, it was necessary to establish whether glutamate itself can induce the modulation in glutamate levels observed, and thus can mimic the modulatory effects observed with ACPD. These studies are difficult since, unlike ACPD, glutamate is also a substrate for the transporter, and therefore, is readily removed. Experiments were carried out in two ways, each yielding similar results. First, cells were preincubated for 24 hours with 100 μM glutamate, then washed and [Glu]o measured in MEM, or secondly, glutamate was directly applied in MEM and changes in [Glu]o were monitored.

Molecules are shown by their SMILES. Read-outs that look alike come from different tables or passages of the source. Bounds are passed on as bounds.

As for `N[C@]1(C(=O)O)CC[C@H](C(=O)O)C1` [1R3S-ACPD, (1R,3S)-1-aminocyclopentane-1,3-dicarboxylic acid], the “effect on aspartate uptake” value in the assay on hippocampal astrocytes [1] (KA or NMDA 1 mM, 24 hours) is “No significant effects”. Also, the activity at 1000 µM with hippocampal astrocytes [2] stood at 18.4 ± 0.9%. The minimal effective concentration in the assay with hippocampal astrocytes [3] (Rattus norvegicus, Astrocyte, 24 hours treatment, read-out: concentrations required to achieve any significant effect on glutamate release) was > 50 µM.

On to `N[C@@]1(C(=O)O)CC[C@@H](C(=O)O)C1` (relative stereo) [trans-ACPD, trans-1-aminocyclopentane-1,3-dicarboxylic acid], for which the “reduction of THA-induced glutamate release” value in assay [4] is reported as “≈ 40%”. For the same compound, the activation at 500 µM in the assay on hippocampal astrocytes [1] came out at 31 ± 2.7%. For the same compound, the activity at 100 µM amounted to 46.3 ± 4.3% in the assay on hippocampal astrocytes [3] (Rattus norvegicus, Astrocyte, 432 h, cells P9, 18 days in vitro, 250 μM agonist); 12.4 ± 1.2% with hippocampal astrocytes [3] (Rattus norvegicus, Astrocyte, 432 h, cells P23, 18 days in vitro, 200 μM agonist); 23.1 ± 1.4% with hippocampal astrocytes [3] (Rattus norvegicus, Astrocyte, 456 h, cells P21, 19 days in vitro, 100 μM agonist); 20 ± 6.1% with hippocampal astrocytes [3] (Rattus norvegicus, Astrocyte, 624 h, cells P15, 26 days in vitro, 100 μM agonist); 78.2 ± 10.1% in the assay with hippocampal astrocytes [3] (Rattus norvegicus, Astrocyte, 672 h, cells P2, 28 days in vitro, 500 μM agonist); 60.6 ± 6.3% in the assay on hippocampal astrocytes [3] (Rattus norvegicus, Astrocyte, cells P0, 60 days in vitro, 100 μM agonist). Moreover, the activity at 100 µM turned out to be 59.6 ± 10.1% with hippocampal astrocytes [3] (Rattus norvegicus, Astrocyte, cells P2, 25 days in vitro, 500 μM agonist); 51.3 ± 5.7% with hippocampal astrocytes [3] (Rattus norvegicus, Astrocyte, cells P2, 34 days in vitro, 100 μM agonist); 19.5 ± 2.7% in the assay with hippocampal astrocytes [3] (Rattus norvegicus, Astrocyte, cells P40, 31 days in vitro, 100 μM agonist). Moreover, in the assay on glial cells, the “enhancement of glutamate uptake” value is “up to 80%”. For the same compound, in the assay on glial cells (neuron-glial cocultures (FIG. 19)), the “reduction of extracellular glutamate levels versus control” value is reported as “up to 100%”. Besides, in the assay on hippocampal astrocytes [5], the “steady-state [Glu]o after glutamate challenge” value turned out to be 0.18 ± 0.03 µM. The “steady-state [Glu]o lower than in control cultures” value in the assay on hippocampal astrocytes [5] was determined as 5 fold.

Usually EC50 stands for the concentration needed to bring the measured effect to its halfway point. As to `N[C@@]1(C(=O)O)CC[C@@H](C(=O)O)C1` [1S3R-ACPD, (1S,3R)-1-aminocyclopentane-1,3-dicarboxylic acid], in the assay on hippocampal astrocytes [1], the activation at 500 µM came out at 31 ± 2.7%. Further, in the assay on hippocampal astrocytes [2], the activity at 1000 µM turned out to be 85.2 ± 5.1%. In addition, the “more effective than 1R3S-ACPD in reducing glutamate release” value in the assay on hippocampal astrocytes [3] is “≈ 100 fold”. Further, the “time to steady-state [Glu]o, acute application” value in the assay with hippocampal astrocytes [3] (50 μM in glutamate-free MEM) is recorded as “≈ 2 hours”. In addition, in the assay on hippocampal astrocytes [3] (50 μM in glutamate-free, glucose-supplemented MEM), the “steady-state [Glu]o, acute application” value is 0.3 to 0.4 µM. Moreover, the “THA-induced glutamate release lower in treated cells” value in the assay on hippocampal astrocytes [3] (100 μM for 24 hours pretreatment, any THA concentration) is listed as 3-5 fold. Besides, the “swelling induced glutamate release” value in the assay with hippocampal astrocytes [3] (100 μM, 24 h pretreatment, hypotonic 153 mOsm) is “inhibited swelling induced glutamate release to some extent”. Also, in the assay with hippocampal astrocytes [3] (200 μM), the “preincubation time for maximal effects” value is “≈ 14 hours”. Further, the “ET50 of attenuation of [Glu]o versus preincubation time” value in the assay with hippocampal astrocytes [3] (200 μM, preincubation 0.5-36 hours) is reported as “≈ 1 hour”. Also, the “order of potency in mimicking ACPD effect on glutamate release” value in the assay on hippocampal astrocytes [3] (FIG. 7B) is “S-4CPG>1S3R-ACPD>L-CCG-I>1S3S-ACPD=QA”. Moreover, the activity at 200 µM with hippocampal astrocytes [3] (Rattus norvegicus, Astrocyte, 14 h, 200 μM, ≈14 hours preincubation, read-out: [Glu]o levels at maximal effect) is < 30%. Besides, the activity at 100 µM was 17.3 ± 1.2% with hippocampal astrocytes [3] (Rattus norvegicus, Astrocyte, 408 h, cells P22, 17 days in vitro, 100 μM agonist); 14.8 ± 4.3% with hippocampal astrocytes [3] (Rattus norvegicus, Astrocyte, 408 h, cells P22, 17 days in vitro, 200 μM agonist); 32.5 ± 4.7% with hippocampal astrocytes [3] (Rattus norvegicus, Astrocyte, 480 h, cells P16, 20 days in vitro, 10 μM agonist); 73.4 ± 2.9% with hippocampal astrocytes [3] (Rattus norvegicus, Astrocyte, 528 h, cells P2, 22 days in vitro, 100 μM agonist); 34.1 ± 5.6% in the assay on hippocampal astrocytes [3] (Rattus norvegicus, Astrocyte, 528 h, cells P13, 22 days in vitro, 100 μM agonist); 45.8 ± 11.9% in the assay on hippocampal astrocytes [3] (Rattus norvegicus, Astrocyte, 552 h, cells P9, 23 days in vitro, 100 μM agonist). Moreover, the activity at 100 µM in the assay with hippocampal astrocytes [3] (Rattus norvegicus, Astrocyte, cells P2, 30 days in vitro, 100 μM agonist) is 66.9 ± 9.9%; in the assay on hippocampal astrocytes [3] (Rattus norvegicus, Astrocyte, cells P9, 36 days in vitro, 100 μM agonist), 66.5 ± 6.29%; in the assay on hippocampal astrocytes [3] (Rattus norvegicus, Astrocyte, cells P10, 32 days in vitro, 250 μM agonist), 24.1 ± 7.8%; in the assay with hippocampal astrocytes [3] (Rattus norvegicus, Astrocyte, cells P22, 40 days in vitro, 250 μM agonist), 29 ± 5.4%. Also, the EC50 in the assay on hippocampal astrocytes [3] (Rattus norvegicus, Astrocyte, 24 hours treatment, dose-effect curve, read-out: EC50, reduction of glutamate release) lay within 2 to 5 µM. In addition, the “effect on [Glu]o / glutamate release” value in the assay on hippocampal astrocytes [3] (cells treated for 24 hours, then MEM) is “reduce [Glu]o in a dose-dependent manner”.
